Test system: rats subjected to sTBI
Assay: sTBI rats, LMW-DS 1, 5, 15 mg/kg s.c. 30 min post-TBI: HPLC of brain free amino acids (Example 4)
Format: in vivo, rat
Conditions: for HYS concentration in deproteinized brain homogenate / ILE concentration in deproteinized brain homogenate / LEU concentration in deproteinized brain homogenate / LYS concentration in deproteinized brain homogenate / PHE concentration in deproteinized brain homogenate / TAU concentration in deproteinized brain homogenate / TRP concentration in deproteinized brain homogenate / TYR concentration in deproteinized brain homogenate / VAL concentration in deproteinized brain homogenate: rats 7 days post-sTBI, mean ± S.D. of 12 animals
[1] = 15 mg/kg repeated, 7 d post-sTBI
[2] = repeated administration of 15 mg/kg b.w.
[3] = single administration 1 mg/kg b.w.
[4] = single administration 5 mg/kg b.w.
[5] = single administration 15 mg/kg b.w.

sodium salt of dextran sulfate [LMW-DS]
GLN [1]: 3.88 ± 0.40 nmol/g w.w. | GLU [1]: 10.78 ± 0.91 nmol/g w.w. | GLY [1]: 0.78 ± 0.10 nmol/g w.w. | L-Cystat [1]: 0.44 ± 0.07 nmol/g w.w. | MET [1]: 0.05 ± 0.01 nmol/g w.w. | ORN [1]: 0.02 ± 0.01 nmol/g w.w. | SAH [1]: 0.04 ± 0.04 nmol/g w.w. | SER [1]: 0.79 ± 0.13 nmol/g w.w. | THR [1]: 0.77 ± 0.14 nmol/g w.w. | ALA (15 mg/kg, 2 d post-sTBI): 0.68 ± 0.07 nmol/g w.w. | ARG (15 mg/kg, 2 d post-sTBI): 0.16 ± 0.04 nmol/g w.w. | ASN (15 mg/kg, 2 d post-sTBI): 0.17 ± 0.03 nmol/g w.w. | ASP (15 mg/kg, 2 d post-sTBI): 3.05 ± 0.42 nmol/g w.w. | CITR (15 mg/kg, 2 d post-sTBI): 0.01 ± 0.01 nmol/g w.w. | GABA (15 mg/kg, 2 d post-sTBI): 1.58 ± 0.14 µmol/g w.w. | GLN (15 mg/kg, 2 d post-sTBI): 4.21 ± 0.51 nmol/g w.w. | GLU (15 mg/kg, 2 d post-sTBI): 11.79 ± 0.55 nmol/g w.w. | GLY (15 mg/kg, 2 d post-sTBI): 1.18 ± 0.23 nmol/g w.w. | HYS (15 mg/kg, 2 d post-sTBI): 0.10 ± 0.01 nmol/g w.w. | ILE (15 mg/kg, 2 d post-sTBI): 0.06 ± 0.01 nmol/g w.w. | L-Cystat (15 mg/kg, 2 d post-sTBI): 0.41 ± 0.08 nmol/g w.w. | LEU (15 mg/kg, 2 d post-sTBI): 0.04 ± 0.01 nmol/g w.w. | LYS (15 mg/kg, 2 d post-sTBI): 0.32 ± 0.12 nmol/g w.w. | MET (15 mg/kg, 2 d post-sTBI): 0.03 ± 0.01 nmol/g w.w. | ORN (15 mg/kg, 2 d post-sTBI): 0.02 ± 0.01 nmol/g w.w. | PHE (15 mg/kg, 2 d post-sTBI): 0.06 ± 0.01 nmol/g w.w. | SAH (15 mg/kg, 2 d post-sTBI): 0.06 ± 0.02 nmol/g w.w. | SER (15 mg/kg, 2 d post-sTBI): 0.76 ± 0.06 nmol/g w.w. | TAU (15 mg/kg, 2 d post-sTBI): 4.59 ± 0.43 nmol/g w.w. | THR (15 mg/kg, 2 d post-sTBI): 0.61 ± 0.13 nmol/g w.w. | TRP (15 mg/kg, 2 d post-sTBI): 0.04 ± 0.01 nmol/g w.w. | TYR (15 mg/kg, 2 d post-sTBI): 0.17 ± 0.03 nmol/g w.w. | VAL (15 mg/kg, 2 d post-sTBI): 0.06 ± 0.03 nmol/g w.w. | ALA (15 mg/kg, 7 d post-sTBI): 0.38 ± 0.04 nmol/g w.w. | ARG (15 mg/kg, 7 d post-sTBI): 0.14 ± 0.02 nmol/g w.w. | ASN (15 mg/kg, 7 d post-sTBI): 0.10 ± 0.02 nmol/g w.w. | ASP (15 mg/kg, 7 d post-sTBI): 2.29 ± 0.37 nmol/g w.w. | CITR (15 mg/kg, 7 d post-sTBI): 0.03 ± 0.01 nmol/g w.w. | GABA (15 mg/kg, 7 d post-sTBI): 1.43 ± 0.15 µmol/g w.w. | GLN (15 mg/kg, 7 d post-sTBI): 3.73 ± 0.38 nmol/g w.w. | GLU (15 mg/kg, 7 d post-sTBI): 10.25 ± 0.86 nmol/g w.w. | GLY (15 mg/kg, 7 d post-sTBI): 0.78 ± 0.12 nmol/g w.w. | L-Cystat (15 mg/kg, 7 d post-sTBI): 0.25 ± 0.04 nmol/g w.w. | MET (15 mg/kg, 7 d post-sTBI): 0.04 ± 0.01 nmol/g w.w. | ORN (15 mg/kg, 7 d post-sTBI): 0.01 ± 0.01 nmol/g w.w. | SAH (15 mg/kg, 7 d post-sTBI): 0.04 ± 0.01 nmol/g w.w. | SER (15 mg/kg, 7 d post-sTBI): 0.76 ± 0.12 nmol/g w.w. | THR (15 mg/kg, 7 d post-sTBI): 0.72 ± 0.14 nmol/g w.w. | HYS concentration in deproteinized brain homogenate [2]: 0.06 ± 0.01 nmol/g w.w. | ILE concentration in deproteinized brain homogenate [2]: 0.03 ± 0.01 nmol/g w.w. | LEU concentration in deproteinized brain homogenate [2]: 0.04 ± 0.01 nmol/g w.w. | LYS concentration in deproteinized brain homogenate [2]: 0.23 ± 0.07 nmol/g w.w. | PHE concentration in deproteinized brain homogenate [2]: 0.05 ± 0.01 nmol/g w.w. | TAU concentration in deproteinized brain homogenate [2]: 3.47 ± 0.44 nmol/g w.w. | TRP concentration in deproteinized brain homogenate [2]: 0.03 ± 0.01 nmol/g w.w. | TYR concentration in deproteinized brain homogenate [2]: 0.14 ± 0.02 nmol/g w.w. | VAL concentration in deproteinized brain homogenate [2]: 0.07 ± 0.01 nmol/g w.w. | HYS concentration in deproteinized brain homogenate [3]: 0.06 ± 0.01 nmol/g w.w. | ILE concentration in deproteinized brain homogenate [3]: 0.04 ± 0.01 nmol/g w.w. | LEU concentration in deproteinized brain homogenate [3]: 0.05 ± 0.01 nmol/g w.w. | LYS concentration in deproteinized brain homogenate [3]: 0.19 ± 0.06 nmol/g w.w. | PHE concentration in deproteinized brain homogenate [3]: 0.05 ± 0.01 nmol/g w.w. | TAU concentration in deproteinized brain homogenate [3]: 4.02 ± 0.51 nmol/g w.w. | TRP concentration in deproteinized brain homogenate [3]: 0.01 ± 0.01 nmol/g w.w. | TYR concentration in deproteinized brain homogenate [3]: 0.13 ± 0.02 nmol/g w.w. | VAL concentration in deproteinized brain homogenate [3]: 0.08 ± 0.01 nmol/g w.w. | HYS concentration in deproteinized brain homogenate [4]: 0.06 ± 0.01 nmol/g w.w. | ILE concentration in deproteinized brain homogenate [4]: 0.05 ± 0.01 nmol/g w.w. | LEU concentration in deproteinized brain homogenate [4]: 0.05 ± 0.01 nmol/g w.w. | LYS concentration in deproteinized brain homogenate [4]: 0.21 ± 0.04 nmol/g w.w. | PHE concentration in deproteinized brain homogenate [4]: 0.06 ± 0.01 nmol/g w.w. | TAU concentration in deproteinized brain homogenate [4]: 3.51 ± 0.44 nmol/g w.w. | TRP concentration in deproteinized brain homogenate [4]: 0.02 ± 0.01 nmol/g w.w. | TYR concentration in deproteinized brain homogenate [4]: 0.13 ± 0.02 nmol/g w.w. | VAL concentration in deproteinized brain homogenate [4]: 0.08 ± 0.01 nmol/g w.w. | HYS concentration in deproteinized brain homogenate [5]: 0.06 ± 0.01 nmol/g w.w. | ILE concentration in deproteinized brain homogenate [5]: 0.07 ± 0.01 nmol/g w.w. | LEU concentration in deproteinized brain homogenate [5]: 0.07 ± 0.01 nmol/g w.w. | LYS concentration in deproteinized brain homogenate [5]: 0.21 ± 0.05 nmol/g w.w. | PHE concentration in deproteinized brain homogenate [5]: 0.07 ± 0.01 nmol/g w.w. | TAU concentration in deproteinized brain homogenate [5]: 3.38 ± 0.44 nmol/g w.w. | TRP concentration in deproteinized brain homogenate [5]: 0.03 ± 0.01 nmol/g w.w. | TYR concentration in deproteinized brain homogenate [5]: 0.14 ± 0.02 nmol/g w.w. | VAL concentration in deproteinized brain homogenate [5]: 0.10 ± 0.01 nmol/g w.w.

— patent US20230346827A1 (priority 2020, published 2023)
